Converted amounts (≈) assume the structure as drawn. “Also recorded” adds a separate entry of the source.
Legend:
[1] = system: MCF-7 human breast adenocarcinoma; experiment: Cytotoxicity ID50/ID75/ID90, trypan blue dye exclusion; assay type: cell-based; conditions: 48 hours
Procedure: (§1) All cells in adherent culture were initiated at 5×10^4 cells/well in 96-well microplates and treated immediately with iso-C15 at different concentrations (0, 1.5, 3.0, 6.0, 15.0, 30.0, and 60.0 μg/ml) diluted with medium. Both untreated and solvent (NaOH and Tween 80) treated cells served as controls. The treated cells were incubated for 48 hours at 37° C. After incubation, the supernatants were removed and the cells were trypsinized and collected prior to viability assessment by trypan blue dye exclusion.
(§2) The ID50, ID75 and ID90 were determined in duplicate in every set of experiments, and each experiment was repeated three times under identical conditions. ID50, ID75 and ID90 were defined as the concentration of iso-C15 required to kill 50, 75 or 90%, respectively, of cells (compared with that in untreated cells) and computed using CalcuSyn for Windows software (Biosoft, Cambridge UK) based on Median Effect method by Dr. T. C. Chou.

[2] = system: HCT 116 human colon carcinoma; experiment: as above; assay type: cell-based; conditions: 48 hours
Procedure: as §1, §2

[3] = system: SNU-423 human hepatocellular carcinoma; experiment: as above; assay type: cell-based; conditions: 48 hours
Procedure: as §1, §2

[4] = system: DU-145 human prostate carcinoma; experiment: as above; assay type: cell-based; conditions: 48 hours
Procedure: as §1, §2

[5] = system: H1688 human small cell lung carcinoma; experiment: as above; assay type: cell-based; conditions: 48 hours
Procedure: as §1, §2

[6] = system: human hepatocellular carcinoma LCI-D35; experiment: Orthotopic nude mice model of human hepatocellular carcinoma LCI-D35; assay type: in vivo, athymic BALB/c nude mice
Procedure: 13-methyltetradecanoic acid (iso-C15) was chemically synthesized in the inventor's laboratory, as described in Example 5, infra, (purity of 99.8%), was prepared by dissolving in NaOH solution and then in 0.35% Tween 80 with pH7.5.
Total of 16 male and female athymic BALB/c nude mice between 4 and 5 weeks of age were bred and maintained in specific pathogen free condition.
Human hepatocellular carcinoma LCI-D35 was originally obtained from the primary tumor of a patient. The tumor was implanted and maintained subcutaneously in athymic nude mice. Prior to orthotopic implantation, the tumor was harvested in log phase. The peripheral tumor tissue was collected and minced to small pieces of one cubic millimeter each.
The mice were anesthetized for surgical orthotopic implantation. A small incision was made along the midline of the upper abdomen. The left lobe of the liver was exposed and a small incision was made on the liver surface. Two of the tumor fragments above were sutured into the incision using 8-0 suture. The abdomen was then closed using a 6-0 surgical suture.
The mice bearing orthotopic LCI-D35 were randomly divided into control and test groups of eight mice each at the second day after tumor implantation. The iso-C15 prepared above at dose 70 mg/kg and PBS were administered by gavage once a day in the test and control group, respectively, for 40 days.
All the mice were sacrificed by CO2 inhalation at day-40 after the start of treatment. The weights of primary tumors and bodies were measured. Tissue samples of the primary tumors were processed through standard procedures of hematoxylin and eosin staining for microscopic examination.
The tumor inhibition rates (TIR) were determined by comparing the mean tumor weight of the test groups (T) with that of the control group (C) and expressed as a (C)−T)/C percentage, and were analyzed by Student's test for statistical significance.

[7] = system: SNU-1 human gastric carcinoma; experiment: Cytotoxicity ID50/ID75/ID90, viability assessment; assay type: cell-based; conditions: 48 hours
Procedure: (§3) PBLs, K-562 and SNU-1 cells in suspension culture were seeded in 96-well microplates at a density of 5×10^4 cells/well for K-562 and SNU-1, and 1×10^5 cells/well for PBLs. iso-C15 were diluted with medium to provide different concentrations (0, 1.5, 3.0, 6.0, 15.0, 30.0, and 60.0 μg/ml). Both untreated and solvent (NaOH and Tween 80) treated cells served as controls. After incubation for 48 hours at 37° C., cells were collected directly from the wells for viability assessment.
as §2

K-562 human leukemia = experiment: Cytotoxicity ID50/ID75/ID90, viability assessment; assay type: cell-based; conditions: 48 hours
Procedure: as §3, §2

Determination of LD50 = assay type: in vivo
Procedure: 13-methyltetradecanoic acid (iso-C15) purchased from Sigma (St. Louis, Mo.) was prepared by dissolving in NaOH solution and then in 0.35% Tween 80 with pH7.5.
ICR mice weighing 20.5–22.5 g of both sexes were treated with iso-C15 i.p. qd×3 in test groups and with solvent of same dose as in a control group. The doses ranged from 10 to 800 mg/kg of iso-C15 and two mice were included in each dose group (10 mg/kg, 20 mg/kg, 40 mg/kg, 80 mg/kg, 160 mg/kg, and 800 mg/kg). The general condition of these mice were monitored daily for seven days.

[8] = Human clinical studies on the safety of iso-C15; assay type: in vivo
Procedure: Chemically synthesized iso-C15 of 99.8% purity were prepared in 0.20 g capsules. Six healthy adult volunteers (4 male, 2 female) of average age 35.6 were divided into three groups, and orally received iso-C15 capsules for thirty days. Low dose group: one case, 0.6 g daily; middle dose group: two cases, 1.2 g daily; high dose group: three cases, 1.8 g daily. The examinations were carried out before, during and after experiment, including physical examinations, blood and urine routine examinations, function of heart, liver and kidney, X-ray radioscopy of lung and subjective symptom.

[9] = 0.6–1.8 g daily oral, thirty days
[10] = after test, 0.6–1.8 g daily oral, thirty days

## CC(C)CCCCCCCCCCCC(=O)O [iso-C15, 13-methyltetradecanoic acid]
[1]
  ID75: 15.99 ± 1.28 µg/mL (≈ 66 µM)
  ID90: 25.49 ± 1.68 µg/mL (≈ 105 µM)
[2]
  ID75: 67.96 ± 8.25 µg/mL (≈ 280 µM)
  ID90: 108.65 ± 13.35 µg/mL (≈ 448 µM)
[3]
  ID75: 70.46 ± 9.36 µg/mL (≈ 291 µM)
  ID90: 120.77 ± 15.82 µg/mL (≈ 498 µM)
[4]
  ID75: 40.43 ± 5.72 µg/mL (≈ 167 µM)
  ID90: 81.87 ± 8.85 µg/mL (≈ 338 µM)
[5]
  ID75: 35.03 ± 3.59 µg/mL (≈ 145 µM)
  ID90: 61.37 ± 8.06 µg/mL (≈ 253 µM)
[6]; 70 mg/kg oral
  signs of toxicity (body weight curve, histology slides): no signs of toxicity
[6]; 70 mg/kg oral, 40 days
  TIR (tumor inhibition rate): 64.9%
  tumor weight mean ± SD: 0.071 ± 0.052 g
[6]; 70 mg/kg, eight mice per group
  mice in which the implanted tumor did not grow: two
[7]
  ID75: 47.43 ± 4.95 µg/mL (≈ 196 µM)
  ID90: 80.49 ± 10.03 µg/mL (≈ 332 µM)
K-562 human leukemia
  ID75: 22.27 ± 4.60 µg/mL (≈ 91.9 µM)
  ID90: 43.57 ± 6.71 µg/mL (≈ 180 µM)
Determination of LD50; both sexes, ICR, mouse, in vivo, ip
  LD50 at 7 days: > 800 mg/kg
Determination of LD50; i.p. qd×3, dose up to 800 mg/kg, monitored seven days
  mortality: No mice died
[8]; 0.6 g–1.8 g daily for one month, oral
  toxicity / side effects in volunteers: without any side effects; also recorded: without any toxicity effects
[8]; [9]
  heart and lung, electrocardiogram (EKG) and X-ray radioscopy: No abnormality
  urine routine: no abnormality
[8]; [10]
  ALT: 15.00 ± 10.33 μ/L
  BUN: 6.47 ± 1.72 mmol/L
  GRAN: 3.80 ± 0.89 × 10^9
  HB: 128 ± 16.9 g/L
  PLT: 232.0 ± 52.1 × 10^9/L
  RBC: 4.62 ± 0.69 × 10^12/L
  WBC: 7.50 ± 0.71 × 10^9/L
[8]; before test, X ± SD, 6 cases
  ALT: 15.17 ± 8.70 μ/L
  BUN: 6.69 ± 2.14 mmol/L
  GRAN: 3.20 ± 0.59 × 10^9
  HB: 122 ± 10.4 g/L
  PLT: 203.0 ± 33.3 × 10^9/L
  RBC: 4.64 ± 0.40 × 10^12/L
  WBC: 5.80 ± 0.95 × 10^9/L

Reference: patent publication US7070965B1, “Small molecule anticancer compounds and related production process” (priority 1998, dated 2006)
